Laboratory results published in publication PMC9387934, “Randomized single oral dose phase 1 study of safety, tolerability, and pharmacokinetics of Iminosugar UV-4 Hydrochloride (UV-4B) in healthy subjects” (PLoS Neglected Tropical Diseases, 2022).
Where a name gives a salt, the structure may show the parent alone.

Assay: Phase 1a single ascending dose study: UV-4 in pooled urine, urinary recovery and renal clearance
Format: in vivo, human
Conditions: urine; for Cumulative Amount Ae(0-last): corresponds to Ae(0-48); for Cumulative Percent fe(0-last): corresponds to fe(0-48)
Method: Serial blood samples were collected at pre-dose (0 hour) and 0.5, 1, 1.5, 2, 2.5, 3, 4, 6, 9, 12, 18, 24, 36, and 48 hours post-dose for assessment of UV-4 concentrations in plasma. Pooled urine samples were collected at pre-dose (-12 to 0 hour) and from 0 to 6, 6 to 12, 12 to 24, and 24 to 48 hours post-dose for assessment of UV-4 concentrations in urine. Plasma and urine concentrations of UV-4 were determined by means of validated, sensitive, and specific high-performance liquid chromatography/tandem mass spectrometric (LC-MS/MS) assays. UV-4 plasma and urine concentrations and PK parameters were listed and summarized by dose, as appropriate. Only the 48 subjects who received active investigational product were included in the PK analysis population.
8.2.3 Specimen Preparation, Handling, and Shipping
8.2.3.1 Instructions for Specimen Preparation, Handling, and Storage
The collected PK blood samples (2 mL) will be placed on ice after blood draw, and within 1 hour centrifuged at room temperature at approximately 3000 revolutions per minute for 15 minutes. Plasma will then be harvested and split into 4 aliquots of approximately 250 μ L and stored frozen at -20°C until shipped.
Urine samples (approximately 10 mL) for determination of UV-4 concentrations in urine will be taken from the total volume provided during each collection period. The total volume of each urine collection will be recorded along with the start/stop time for each urine collection interval.
Analysis of plasma and urine for UV-4 will be performed by the qualified bioanalytical laboratory, Quintiles Bioservices, Inc., Ithaca, New York 14950. Instructions for the proper preparation, handling, storage and shipping of specimens will be provided separately in a study-specific laboratory manual (i.e., Biopacket).
8.2.3.2 Specimen Shipment […]
The following single-dose urine PK parameters will be estimated from the UV-4 urine concentration-time data collected, as appropriate:
Ae Amount of UV-4 excreted in urine unchanged, calculated for each collection interval and cumulatively across intervals fe Fraction of UV-4 excreted in urine unchanged, calculated for each collection interval and cumulatively across intervals […]
Additional UV-4 PK parameters may be calculated at the discretion of the […]
Plasma concentrations and plasma and urine PK parameters will be summarized by treatment using descriptive statistics, as appropriate. Figures for the arithmetic mean (and SD) concentration-time data will be presented for all doses on both a linear and semi-logarithmic scale. Individual concentration-time data will be graphically presented on linear and semi-logarithmic scales. Scatter plots of individual and geometric mean PK parameters versus dose will be presented. Additional graphical presentations of PK data may be added at the discretion of the PK analyst.
Dose proportionality of Cmax, AUC(0-last), and AUC(0-inf) will be assessed graphically and statistically using the power model approach with the logarithm of PK parameters AUC(0-inf) and Cmax as the dependent variables and the logarithm of the dose as the independent variable: ([AUC(0-inf), AUC(0-last), or Cmax]=α *doseβ).
11.4.7 Deviation from Original Analysis Plan
Deviations from the formal statistical analysis plan will be noted in the final Clinical Study

[1] = Cohort 4, 90 mg single oral dose, Median
[2] = Cohort 5, 180 mg single oral dose, Ar Mean
[3] = Cohort 5, 180 mg single oral dose, Median
[4] = Cohort 6, 360 mg single oral dose, Ar Mean
[5] = Cohort 6, 360 mg single oral dose, Median
[6] = Cohort 7, 720 mg single oral dose, Ar Mean
[7] = Cohort 7, 720 mg single oral dose, Median
[8] = Cohort 8, 1000 mg single oral dose, Ar Mean
[9] = Cohort 8, 1000 mg single oral dose, Median

Compound: COCCCCCCCCCN1C[C@H](O)[C@@H](O)[C@H](O)[C@H]1CO [UV-4B, N-(9’-methoxynonyl)-1-deoxynojirimycin hydrochloride]
- By-Interval Amount Ae(12-24) [1]: 4.01 mg
- By-Interval Amount Ae(24-48) [1]: 1.50 mg
- By-Interval Percent fe(0-6) [1]: 43.6%
- By-Interval Percent fe(6-12) [1]: 7.07%
- By-Interval Percent fe(12-24) [1]: 4.46%
- By-Interval Percent fe(24-48) [1]: 1.66%
- Cumulative Amount Ae(0-12) [1]: 44.2 mg
- Cumulative Amount Ae(0-24) [1]: 47.8 mg
- Cumulative Percent fe(0-12) [1]: 49.1%
- Cumulative Percent fe(0-24) [1]: 53.1%
- Cumulative Amount Ae(0-last) [1]: 49.7 mg
- Cumulative Percent fe(0-last) [1]: 55.3%
- By-Interval Amount Ae(0-6) [2]: 77.5 mg
- By-Interval Amount Ae(6-12) [2]: 12.1 mg
- By-Interval Amount Ae(12-24) [2]: 6.06 mg
- By-Interval Amount Ae(24-48) [2]: 2.43 mg
- By-Interval Percent fe(0-6) [2]: 43.0%
- By-Interval Percent fe(6-12) [2]: 6.74%
- By-Interval Percent fe(12-24) [2]: 3.37%
- By-Interval Percent fe(24-48) [2]: 1.35%
- Cumulative Amount Ae(0-12) [2]: 89.6 mg
- Cumulative Amount Ae(0-24) [2]: 95.7 mg
- Cumulative Percent fe(0-12) [2]: 49.8%
- Cumulative Percent fe(0-24) [2]: 53.1%
- Cumulative Amount Ae(0-last) [2]: 97.9 mg
- Cumulative Percent fe(0-last) [2]: 54.5%
- By-Interval Amount Ae(0-6) [3]: 77.7 mg
- By-Interval Amount Ae(6-12) [3]: 12.1 mg
- By-Interval Amount Ae(12-24) [3]: 5.76 mg
- By-Interval Amount Ae(24-48) [3]: 2.20 mg
- By-Interval Percent fe(0-6) [3]: 43.2%
- By-Interval Percent fe(6-12) [3]: 6.72%
- By-Interval Percent fe(12-24) [3]: 3.20%
- By-Interval Percent fe(24-48) [3]: 1.22%
- Cumulative Amount Ae(0-12) [3]: 89.5 mg
- Cumulative Amount Ae(0-24) [3]: 96.8 mg
- Cumulative Percent fe(0-12) [3]: 49.7%
- Cumulative Percent fe(0-24) [3]: 53.8%
- Cumulative Amount Ae(0-last) [3]: 99.8 mg
- Cumulative Percent fe(0-last) [3]: 55.6%
- By-Interval Amount Ae(0-6) [4]: 159 mg
- By-Interval Amount Ae(6-12) [4]: 19.1 mg
- By-Interval Amount Ae(12-24) [4]: 7.09 mg
- By-Interval Amount Ae(24-48) [4]: 2.83 mg
- By-Interval Percent fe(0-6) [4]: 44.2%
- By-Interval Percent fe(6-12) [4]: 5.32%
- By-Interval Percent fe(12-24) [4]: 1.97%
- By-Interval Percent fe(24-48) [4]: 0.787%
- Cumulative Amount Ae(0-12) [4]: 178 mg
- Cumulative Amount Ae(0-24) [4]: 185 mg
- Cumulative Percent fe(0-12) [4]: 49.5%
- Cumulative Percent fe(0-24) [4]: 51.5%
- Cumulative Amount Ae(0-last) [4]: 188 mg
- Cumulative Percent fe(0-last) [4]: 52.3%
- By-Interval Amount Ae(0-6) [5]: 153 mg
- By-Interval Amount Ae(6-12) [5]: 20.0 mg
- By-Interval Amount Ae(12-24) [5]: 6.73 mg
- By-Interval Amount Ae(24-48) [5]: 2.89 mg
- By-Interval Percent fe(0-6) [5]: 42.4%
- By-Interval Percent fe(6-12) [5]: 5.55%
- By-Interval Percent fe(12-24) [5]: 1.87%
- By-Interval Percent fe(24-48) [5]: 0.803%
- Cumulative Amount Ae(0-12) [5]: 172 mg
- Cumulative Amount Ae(0-24) [5]: 178 mg
- Cumulative Percent fe(0-12) [5]: 47.8%
- Cumulative Percent fe(0-24) [5]: 49.5%
- Cumulative Amount Ae(0-last) [5]: 182 mg
- Cumulative Percent fe(0-last) [5]: 50.4%
- By-Interval Amount Ae(0-6) [6]: 301 mg
- By-Interval Amount Ae(6-12) [6]: 42.5 mg
- By-Interval Amount Ae(12-24) [6]: 11.7 mg
- By-Interval Amount Ae(24-48) [6]: 4.09 mg
- By-Interval Percent fe(0-6) [6]: 41.8%
- By-Interval Percent fe(6-12) [6]: 5.90%
- By-Interval Percent fe(12-24) [6]: 1.63%
- By-Interval Percent fe(24-48) [6]: 0.569%
- Cumulative Amount Ae(0-12) [6]: 344 mg
- Cumulative Amount Ae(0-24) [6]: 355 mg
- Cumulative Percent fe(0-12) [6]: 47.7%
- Cumulative Percent fe(0-24) [6]: 49.4%
- Cumulative Amount Ae(0-last) [6]: 360 mg
- Cumulative Percent fe(0-last) [6]: 49.9%
- By-Interval Amount Ae(0-6) [7]: 285 mg
- By-Interval Amount Ae(6-12) [7]: 45.7 mg
- By-Interval Amount Ae(12-24) [7]: 12.1 mg
- By-Interval Amount Ae(24-48) [7]: 4.53 mg
- By-Interval Percent fe(0-6) [7]: 39.6%
- By-Interval Percent fe(6-12) [7]: 6.34%
- By-Interval Percent fe(12-24) [7]: 1.68%
- By-Interval Percent fe(24-48) [7]: 0.630%
- Cumulative Amount Ae(0-12) [7]: 332 mg
- Cumulative Amount Ae(0-24) [7]: 345 mg
- Cumulative Percent fe(0-12) [7]: 46.1%
- Cumulative Percent fe(0-24) [7]: 47.9%
- Cumulative Amount Ae(0-last) [7]: 350 mg
- Cumulative Percent fe(0-last) [7]: 48.5%
- By-Interval Amount Ae(0-6) [8]: 428 mg
- By-Interval Amount Ae(6-12) [8]: 53.7 mg
- By-Interval Amount Ae(12-24) [8]: 16.4 mg
- By-Interval Amount Ae(24-48) [8]: 5.21 mg
- By-Interval Percent fe(12-24) [8]: 1.64%
- Cumulative Amount Ae(0-12) [8]: 482 mg
- Cumulative Amount Ae(0-24) [8]: 498 mg
- Cumulative Amount Ae(0-last) [8]: 504 mg
- By-Interval Amount Ae(0-6) [9]: 421 mg
- By-Interval Amount Ae(6-12) [9]: 56.1 mg
- By-Interval Amount Ae(12-24) [9]: 16.6 mg
- By-Interval Amount Ae(24-48) [9]: 5.03 mg
- Cumulative Amount Ae(0-12) [9]: 475 mg
- Cumulative Amount Ae(0-24) [9]: 496 mg
- Cumulative Amount Ae(0-last) [9]: 501 mg
